Experiment [1] has as its target T1, system Xc^− (Homo sapiens, UniProt Q9UPY5).
T1 sequence (Q9UPY5 1-501): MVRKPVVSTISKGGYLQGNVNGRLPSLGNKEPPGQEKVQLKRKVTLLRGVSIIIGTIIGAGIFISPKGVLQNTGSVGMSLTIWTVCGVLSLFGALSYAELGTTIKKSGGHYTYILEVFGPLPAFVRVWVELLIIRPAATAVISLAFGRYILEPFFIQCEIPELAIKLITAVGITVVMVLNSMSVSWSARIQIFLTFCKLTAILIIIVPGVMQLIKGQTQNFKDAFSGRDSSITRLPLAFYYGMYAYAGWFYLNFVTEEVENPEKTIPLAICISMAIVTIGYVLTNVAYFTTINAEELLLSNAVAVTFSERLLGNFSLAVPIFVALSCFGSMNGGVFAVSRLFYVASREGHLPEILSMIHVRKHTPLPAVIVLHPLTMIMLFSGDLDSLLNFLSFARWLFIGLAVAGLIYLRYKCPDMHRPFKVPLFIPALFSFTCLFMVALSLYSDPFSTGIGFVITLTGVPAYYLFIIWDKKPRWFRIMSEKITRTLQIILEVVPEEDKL
T1 sequence (P08195 1-529 partner): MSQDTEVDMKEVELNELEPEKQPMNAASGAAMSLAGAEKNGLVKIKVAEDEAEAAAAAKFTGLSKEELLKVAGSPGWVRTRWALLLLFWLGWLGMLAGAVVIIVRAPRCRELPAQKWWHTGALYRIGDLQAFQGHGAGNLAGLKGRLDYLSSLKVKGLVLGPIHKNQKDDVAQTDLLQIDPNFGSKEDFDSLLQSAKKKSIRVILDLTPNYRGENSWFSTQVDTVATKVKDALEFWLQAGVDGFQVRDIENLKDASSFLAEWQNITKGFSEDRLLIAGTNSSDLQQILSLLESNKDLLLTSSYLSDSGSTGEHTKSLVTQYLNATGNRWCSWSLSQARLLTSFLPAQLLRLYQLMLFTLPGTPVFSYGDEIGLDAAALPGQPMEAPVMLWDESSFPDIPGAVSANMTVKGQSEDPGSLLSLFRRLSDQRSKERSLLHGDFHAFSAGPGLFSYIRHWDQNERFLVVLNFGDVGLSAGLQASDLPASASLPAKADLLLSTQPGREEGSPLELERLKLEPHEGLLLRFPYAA
Kind of experiment: [^14C]L-Cystine uptake assay. Further details: endogenous in cells; host or cells: H4 cells. The settings on record: H4 cells, sodium-free HEPES buffer, 0.5 μM L-[14C]Cystine and 4.5 μM L-Cystine, 1 hour at 37° C.; for IC50: read-out: pIC50 [^14C] L-Cystine uptake assay (converted). It counts as cell-based. The essentials:
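Compound effect is given as pIC50, taken between controls of 1% DMSO and 50 μM Erastin. Human H4 cells were pretreated 15 min with compound in sodium-free buffer, then took up 0.5 μM [14C]cystine with 4.5 μM cold cystine for 1 hour at 37° C, read by scintillation proximity counting.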

Experiment [2] has as its target T1, system Xc^−. The experiment in a line: Cystine-induced glutamate release assay. It counts as cell-based. Further details: endogenous in cells; host or cells: H4 cells. The conditions noted are these: H4 cells, sodium-free HEPES buffer, 50 μM L-Cystine, 2 hours, Amplex Red glutamate readout; for IC50: read-out: pIC50 Cystine-induced glutamate release assay (converted). In outline: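 IC50 (reported as pIC50) normalized to DMSO 1% and Erastin 50 μM controls, from Amplex Red fluorescence of glutamate exported into supernatant. H4 cells were washed into sodium-free buffer to exclude EAAT transport, then given compound with 50 μM L-cystine for 2 h in the incubator.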

The values that follow come from patent US20260217708A1, “FUSED BENZAZEPINE DERIVATIVES FOR USE IN THE TREATMENT OF CANCER AND EPILEPSY” (UCB BIOPHARMA SRL, priority 2023, published 2026).

Consider `COc1cc2c(c(F)n1)-c1cccnc1C(C)C(=O)N2CC(=O)Nc1ccc(Cl)c(F)c1` (single isomer, unassigned) [#215, Enantiomer (10S) or (10R) of N-(4-chloro-3-fluoro-phenyl)-2-[3-fluoro-5-methoxy-10-methyl-9-oxo-4,8,12-triazatricyclo[9.4.0.0^2,7]pentadeca-1(15),2(7),3,5,11,13-hexaen-8-yl]acetamide], for which, at system Xc^− [1], the “pIC50 [^14C] L-Cystine uptake assay” value is “C (about 7.40 < pIC50 ≤ about 7.80)”. For the same compound, at system Xc^− [2], the “pIC50 Cystine-induced glutamate release assay” value is recorded as “C (about 7.40 < pIC50 ≤ about 7.80)”.

In the case of `Cc1cc2c(cc1C)N(CC(=O)Nc1ccc(C(F)(F)F)cc1)C(=O)Cc1cncnc1-2` [#9, 2-(9,10-dimethyl-6-oxo-5H-pyrimido[5,4-d][1]benzazepin-7-yl)-N-[4-(trifluoromethyl)phenyl]acetamide], the IC50 is 39.8 to 100 nM at system Xc^− [1] and 100 to 501 nM on system Xc^− [2].

As for `O=C(CN1C(=O)Cc2ncccc2-c2cnc(Cl)cc21)Nc1ccc(C(F)(F)F)cc1` [#25, 2-(5-chloro-9-oxo-4,8,12-triazatricyclo[9.4.0.0^2,7]pentadeca-1(11),2(7),3,5,12,14-hexaen-8-yl)-N-[4-(trifluoromethyl)phenyl]acetamide], the IC50 on system Xc^− [1] and on system Xc^− [2] was 100 to 501 nM each time.

In the case of `O=C(CN1C(=O)Cc2cc(F)ccc2-c2c1ccnc2Cl)Nc1ccc(C(F)(F)F)cc1` (single isomer, unassigned) [#193, Atropisomer aR or aS of 2-(1-chloro-9-fluoro-6-oxo-7H-pyrido[4,3-d][3]benzazepin-5-yl)-N-[4-(trifluoromethyl)phenyl]acetamide], the “pIC50 [^14C] L-Cystine uptake assay” value on system Xc^− [1] was “D (plC50 > about 7.80)”. Further, at system Xc^− [2], the “pIC50 Cystine-induced glutamate release assay” value is on record as “C (about 7.40 < pIC50 ≤ about 7.80)”.

In the case of `CCOc1nc(C)cc2c1-c1cccnc1CC(=O)N2CC(=O)Nc1ccc(C(F)(F)F)cc1` [#82, 2-(3-ethoxy-5-methyl-9-oxo-4,8,12-triazatri-cyclo[9.4.0.0^2,7]penta-deca-1(15),2(7),3,5,11, 13-hexaen-8-yl)-N-[4-(trifluoromethyl)phenyl] acetamide], the results for the IC50 on system Xc^− [1] and on system Xc^− [2] were 39.8 to 100 nM and 100 to 501 nM, respectively.

With `CC1C(=O)N(CC(=O)Nc2ccc(C(F)F)cc2)c2cc(C3(F)CC3)ncc2-c2cc(F)cnc21` (single isomer, unassigned) [#325, N-[4-(difluoromethyl)phenyl]-2-[14-fluoro-5-(1-fluorocyclopropyl)-10-methyl-9-oxo-4,8,12-triazatricyclo[9.4.0.0^2,7]pentadeca-1(11),2,4,6,12,14-hexaen-8-yl]acetamide], the IC50 at system Xc^− [1] was under 15.8 nM; on system Xc^− [2], 15.8 to 39.8 nM.

With `Cc1cc2c(c(F)n1)-c1cccnc1[C@@H](C)C(=O)N2CC(=O)Nc1ccc(F)cc1` [#233, 2-[(10R)-3-fluoro-5,10-dimethyl-9-oxo-4,8,12-triazatricyclo[9.4.0.0^2,7]pentadeca-1(15),2,4,6,11,13-hexaen-8-yl]-N-(4-fluorophenyl)acetamide], the IC50 was 15.8 to 39.8 nM at system Xc^− [1] and 39.8 to 100 nM on system Xc^− [2].

`COc1cc2c(c(F)n1)-c1ncccc1C(C)C(=O)N2CC(=O)Nc1ccc(Cl)c(F)c1` (single isomer, unassigned) [#413, N-(4-chloro-3-fluoro-phenyl)-2-[15-fluoro-13-methoxy-8-methyl-9-oxo-3,10,14-triazatricyclo[9.4.0.0^2,7]pentadeca-1(11),2,4,6,12,14-hexaen-10-yl]acetamide]: the IC50 on system Xc^− [1] is 15.8 to 39.8 nM; at system Xc^− [2], 39.8 to 100 nM.

`Cc1cc2c(cc1C)-n1nccc1CC(=O)N2CC(=O)Nc1ccc(C(F)(F)F)cc1` [#5, 2-(8,9-dimethyl-5-oxo-4H-pyrazolo[5,1-d][1,5]benzodiazepin-6-yl)-N-[4-(trifluoromethyl)phenyl]acetamide]: the IC50 at system Xc^− [1] is 39.8 to 100 nM; on system Xc^− [2] it was 100 to 501 nM.
